Laboratory results taken from patent publication US7795226B2, “Control of radiation injury” (Biotempt B.V., priority 2006, dated 2010).
Values joined by “and” are separate entries in the source; they are usually repeats but may differ in a detail not shown here. Equal values may be shown once.

Tests used:
Assay type in all cases: in vivo
[1] = tested on: renal ischemia reperfusion in mice; experiment: mouse renal ischemia reperfusion test; set-up: BUN after 25 minutes renal ischemia, mean / Urea levels in dose-response experiment: unit not given here; settings: for mortality at 72 hours post-reperfusion: 5 mg/kg i.v. before and after 25 minutes clamping, dead/total
Procedure: Six oligopeptides (i.e., A: LAGV (SEQ ID NO:121); B: AQGV (SEQ ID NO:120); C: LAG; D: AQG; E: MTR; and F: MTRV (SEO ID NO:119)) were tested and compared with PBS (control) in a double blind animal study for each peptide's relative ability to aid recovery in a mouse renal ischemia reperfusion test. In this test, the mice were anesthetized, and one kidney from each mouse was removed. The other kidney was tied off for 25 minutes, and the serum urea levels were allowed to increase. Both before and after tying off, each of the separate peptides was administered to thirty (30) different mice (5 mg oligopeptide / kg body mass intravenously), after which, the mortality of the mice was determined for each oligopeptide as well as was the BUN concentration at two hours, 24 hours and 72 hours. The results are shown in Table 3 below (excluding the results of peptide A (LAGV (SEQ ID NO:121)) obtained in Example 3).
Under inhalation anesthesia, the left kidney with its artery and vein was isolated and occluded for 25 minutes using a microvascular clamp. During surgery, animals were placed on a heating pad to maintain body temperature at 37° C. Five minutes before placing the clamp, and five minutes before releasing the clamp, 5 mg/kg of peptide dissolved in 0.1 mL of sterile saline, was administered intravenously. After reperfusion of the left kidney, the right kidney was removed. Kidney function was assessed by measuring blood urea nitrogen before clamping, and at 2, 24, and 72 hours after reperfusion.
Peptides were tested at 0.3, 1, 3, 10 and 30 mg/kg dosages given as described in Example 3. P values (calculated by Mann Whitney U-test (SPSS for Windows)) of serum urea levels of PBS compared to peptide D groups at 72 hours post-clamping were at 0.3 mg/kg 0.001, at 1 mg/kg 0.009, at 3 mg/kg 0.02, at 10 mg/kg 0.000, and at 30 mg/kg 0.23; for peptide B (SEQ ID NO:120) groups, these P-values were 0.88, 0.054, 0.000, 0.001 and 0.003.

[2] = tested on: LPS (E. coli 026:B6)-induced septic shock in BALB/c mice; experiment: LPS-induced septic shock, single dose of peptide; settings: single dose 5 mg/kg
Procedure: (§1) Mice used in sepsis or septic shock experiments: Female BALB/c mice of eight to twelve weeks of age were used for all experiments. The animals were bred in our facility under specific pathogen-free conditions according to the protocols described in the […] of European Laboratory Animal Science Associations (FELASA) Working group on Animal Health (Laboratory Animals 28:1-24, 1994).
(§2) Injection protocols: For the endotoxin model, BALB/c mice were injected i.p. with 150-300 μg LPS (E. coli 026:B6; Difco Lab., Detroit, Mich., USA). Control groups were treated with PBS i.p. only. To test the effect of peptides, they were dissolved in PBS and injected i.p. at predetermined points in time after LPS treatment.
(§3) Mice were scored for sickness severity using the following measurement scheme: • 0 No abnormalities. • 1 Percolated fur, but no detectable behavior differences compared to normal mice. • 2 Percolated fur, huddle reflex, responds to stimuli (such as tap on cage), just as active during handling as healthy mouse. • 3 Slower response to tap on cage, passive or docile when handled, but still curious when alone in a new setting. • 4 Lack of curiosity, little or no response to stimuli, quite immobile. • 5 Labored breathing, inability or slow to self-right after being rolled onto back (moribund, sacrificed). • D Dead.
A first set of septic shock experiments were set up to determine which of the peptides LQG, LQGV (SEQ ID NO:117), VLPALP (SEQ ID NO:140), VLPALPQ (SEQ ID NO:143), MTR, MTRV (SEQ ID NO:119), VVC or QVVC (SEQ ID NO:118) were capable of inhibiting lipopolysaccharide (LPS)-induced septic shock in mice by treating mice with a single dose of peptide at two hours after LPS treatment. Peptides were used at 5 mg/kg bodyweight. BALB/c mice were injected i.p. with escalating doses LPS (E. coli 026:B6; Difco Lab., Detroit, Mich. USA), predetermined to be leading to 80 to 100% mortality in 24 to 72 hours.
To test the effect of peptide early in the development of shock, mice were treated at two hours or at 24 hours after treatment with varying doses of LPS by i.p. injection with test peptide at 5 mg/kg bodyweight.

[3] = tested on: high dose LPS (E. coli 026:B6)-induced septic shock in BALB/c mice; experiment: high dose LPS-induced septic shock, peptide administered twice; settings: peptide twice (t = 2 and 24 hours) 5 mg/kg
Procedure: as §1, §2, §3
A second set of septic shock experiments were set up to determine which of the peptides LQG, LQGV (SEQ ID NO:117), VLPALP (SEQ ID NO:140), VLPALPQ (SEQ ID NO:143), MTR, MTRV (SEQ ID NO:119), VVC or AQG, AQGV (SEQ ID NO:120), LAG and LAGV (SEQ ID NO:121) were capable of inhibiting high dose LPS-induced septic shock in mice by treating mice with a double dose of peptide at two and 24 hours after LPS treatment. At each treatment, peptides were used at 5 mg/kg bodyweight. BALB/c mice were injected i.p. with high doses LPS (E. coli 026:B6; Difco Lab., Detroit, Mich. USA), predetermined to be leading to 80 to 100% mortality in 24 to 72 hours.

[4] = 2 hours after reperfusion, 5 mg/kg i.v.
[5] = 24 hours after reperfusion, 5 mg/kg i.v.
[6] = 72 hours after reperfusion, 5 mg/kg i.v.
[7] = t = 0 hr (before clamping), 5 mg/kg i.v.

LQG
BUN after 25 minutes renal ischemia, mean [1, 4]: 16.75
BUN after 25 minutes renal ischemia, mean [1, 5]: 26.74
BUN after 25 minutes renal ischemia, mean [1, 6]: 83.96
BUN concentration versus PBS (in words) ([1]; at 24 hours post-reperfusion, 5 mg/kg i.v.): reduced BUN concentration
BUN after 25 minutes renal ischemia, mean [1, 7]: 7.821
mice scored D (dead), effect at t = 24 hours ([2]; LPS dose 7**): 1
mice scored D (dead), effect at t = 48 hours ([2]; LPS dose 7**): 5
mice with sickness score 4, effect at t = 24 hours ([2]; LPS dose 7**): 3
mice with sickness score 4, effect at t = 48 hours ([2]; LPS dose 7**): 1
mice with sickness score 5, effect at t = 24 hours ([2]; LPS dose 7**): 2
mice scored D (dead), effect at t = 48 hours ([2]; LPS dose 7*): 4
mice with sickness score 4, effect at t = 24 hours ([2]; LPS dose 7*): 3
mice with sickness score 5, effect at t = 24 hours ([2]; LPS dose 7*): 3
mice with sickness score 5, effect at t = 48 hours ([2]; LPS dose 7*): 2
mice scored D (dead), effect at t = 24 hours ([2]; LPS dose 8): 1
mice scored D (dead), effect at t = 48 hours ([2]; LPS dose 8): 6
mice with sickness score 2, effect at t = 24 hours ([2]; LPS dose 8): 2
mice with sickness score 3, effect at t = 24 hours ([2]; LPS dose 8): 1
mice with sickness score 3, effect at t = 48 hours ([2]; LPS dose 8): 1
mice with sickness score 4, effect at t = 48 hours ([2]; LPS dose 8): 2
mice with sickness score 5, effect at t = 24 hours ([2]; LPS dose 8): 4
mice with sickness score 5, effect at t = 48 hours ([2]; LPS dose 8): 3
mice with sickness score 3, effect at t = 24 hours ([2]; LPS dose 10): 1
mice with sickness score 4, effect at t = 24 hours ([2]; LPS dose 10): 2
mice with sickness score 4, effect at t = 48 hours ([2]; LPS dose 10): 1
mice with sickness score 5, effect at t = 48 hours ([2]; LPS dose 10): 2
mice scored D (dead), effect at t = 48 hours ([2]; LPS dose 10, 5 mg/kg): 4 and 3
mice with sickness score 5, effect at t = 24 hours ([2]; LPS dose 10, 5 mg/kg): 4 and 3
mice scored D (dead), effect at t = 48 hours ([3]; LPS dose 10.5): 5
mice with sickness score 5, effect at t = 24 hours ([3]; LPS dose 10.5): 5
mice scored D (dead), effect at t = 48 hours ([3]; LPS dose 11): 6
mice with sickness score 4, effect at t = 24 hours ([3]; LPS dose 11): 6

LAGV (tetramer peptide)
BUN concentration versus the PBS control group (in words) ([1]; 5 mg/kg i.v.): reduced BUN concentration
mortality versus the PBS control group (in words) ([1]; 5 mg/kg i.v.): significant reduction in mortality
mortality at 72 hours post-reperfusion [1]: 6/10
BUN after 25 minutes renal ischemia, mean [1, 4]: 14.03
BUN after 25 minutes renal ischemia, mean [1, 5]: 38.86
BUN after 25 minutes renal ischemia, mean [1, 6]: 32.8875
BUN after 25 minutes renal ischemia, mean [1, 7]: 8.167
mice scored D (dead), effect at t = 48 hours ([3]; LPS dose 10.5): 4
mice with sickness score 3, effect at t = 24 hours ([3]; LPS dose 10.5): 1
mice with sickness score 3, effect at t = 48 hours ([3]; LPS dose 10.5): 1
mice with sickness score 5, effect at t = 24 hours ([3]; LPS dose 10.5): 4
mice scored D (dead), effect at t = 24 hours ([3]; LPS dose 11): 1
mice scored D (dead), effect at t = 48 hours ([3]; LPS dose 11): 4
mice with sickness score 3, effect at t = 24 hours ([3]; LPS dose 11): 1
mice with sickness score 3, effect at t = 48 hours ([3]; LPS dose 11): 2
mice with sickness score 4, effect at t = 24 hours ([3]; LPS dose 11): 1
mice with sickness score 5, effect at t = 24 hours ([3]; LPS dose 11): 3

AQGV
Mortality in dose-response experiment ([1]; 0.3 mg/kg, 24 hours): 0-9
Urea levels in dose-response experiment ([1]; 0.3 mg/kg, 24 hours): 62.4
Mortality in dose-response experiment ([1]; 0.3 mg/kg, 72 hours): 2-10
Urea levels in dose-response experiment ([1]; 0.3 mg/kg, 72 hours): 86.7
Mortality in dose-response experiment ([1]; 1.0 mg/kg, 24 hours): 0-10
Urea levels in dose-response experiment ([1]; 1.0 mg/kg, 24 hours): 50.0
Mortality in dose-response experiment ([1]; 1.0 mg/kg, 72 hours): 1-8
Urea levels in dose-response experiment ([1]; 1.0 mg/kg, 72 hours): 52.6
Mortality in dose-response experiment ([1]; 3.0 mg/kg, 24 hours): 1-10
Urea levels in dose-response experiment ([1]; 3.0 mg/kg, 24 hours): 37.4
Mortality in dose-response experiment ([1]; 3.0 mg/kg, 72 hours): 0-10
Urea levels in dose-response experiment ([1]; 3.0 mg/kg, 72 hours): 19.6
BUN concentration versus the PBS control group (in words) ([1]; 5 mg/kg i.v.): reduced BUN concentration
mortality versus the PBS control group (in words) ([1]; 5 mg/kg i.v.): significant reduction in mortality
mortality at 72 hours post-reperfusion [1]: 0/10
Mortality in dose-response experiment ([1]; 10.0 mg/kg, 24 hours): 0-10
Urea levels in dose-response experiment ([1]; 10.0 mg/kg, 24 hours): 41.2
Mortality in dose-response experiment ([1]; 10.0 mg/kg, 72 hours): 0-8
Urea levels in dose-response experiment ([1]; 10.0 mg/kg, 72 hours): 37.1
Mortality in dose-response experiment ([1]; 30.0 mg/kg, 24 hours): 0-8
Urea levels in dose-response experiment ([1]; 30.0 mg/kg, 24 hours): 47.8
Mortality in dose-response experiment ([1]; 30.0 mg/kg, 72 hours): 3-10
Urea levels in dose-response experiment ([1]; 30.0 mg/kg, 72 hours): 38.0
BUN after 25 minutes renal ischemia, mean [1, 4]: 16.62
BUN after 25 minutes renal ischemia, mean [1, 5]: 26.36
BUN after 25 minutes renal ischemia, mean [1, 6]: 22.31
BUN after 25 minutes renal ischemia, mean [1, 7]: 9.713
mice with sickness score 1, effect at t = 24 hours ([3]; LPS dose 10.5): 2
mice with sickness score 1, effect at t = 48 hours ([3]; LPS dose 10.5): 5
mice with sickness score 2, effect at t = 24 hours ([3]; LPS dose 10.5): 3
mice with sickness score 1, effect at t = 24 hours ([3]; LPS dose 11): 2
mice with sickness score 1, effect at t = 48 hours ([3]; LPS dose 11): 6
mice with sickness score 2, effect at t = 24 hours ([3]; LPS dose 11): 4
